Series [1] relates to AML samples expressing high levels of HOXA9 and MEIS1. The series is described as follows: apoptosis measurement (Annexin V) in AML samples. It counts as cell-based, human. To be noted: 1 μM, 5 μM and 10 μM for 24 hours; alone or in combination. The method, then: Isolation of bone marrow mononuclear cells from human bone marrow aspirates can be achieved by Ficoll density centrifugation (400×g, RT, 45 min). CD34+ bone marrow mononuclear cells can be isolated using the human CD34 MultiSort Kit (Miltenyi Biotec). […] The cells can be passed through a mesh to remove cell clumps and can then be incubated in MACS buffer, which can be supplemented with FcR Blocking Reagent, and CD34 MultiSort MicroBeads for a particular time and at a particular temperature (e.g., 30 minutes at 4° C.). Excess beads are removed by washing and then magnetic separation using LS columns is carried out. After elution, cells are washed once in MACS buffer and can be resuspended in SFEM supplemented with diverse cytokines. Flow cytometry can be used to assess the purity of the isolated cells. […] The Annexin V Apoptosis Detection Kit I (BD Bioscience) can be used to detect apoptotic cell death. Cells are harvested and washed once with PBS, and can be resuspended in Annexin V binding buffer (200 μl 1×) containing 5 μl Annexin-PE or Annexin-APC and incubated at room temperature in the dark. After washing (e.g., once with 1× Annexin binding buffer), cells are resuspended in 1× Annexin V binding buffer containing 7-AAD (5 μl) and incubated at room temperature in the dark. 1× Annexin V binding buffer (200 μl) is added and cells are analysed using a BD LSRFortessa flow cytometer.

For another series, the system named is HOXA9/MEIS1 cells. The series is described as follows: time-lapse microscopy and single-cell tracking of cell fate. Type of series: cell-based. The source says: The effect of Syk inhibition in HOXA9 and HOXA9/MEIS1 cells by monitoring the fate of individual cells and their progeny by time-lapse microscopy and single-cell tracking also can be carried out.

Another series deals with AML cell lines. The series is described as follows: cytotoxicity by Annexin V/PI staining against a panel of AML cell lines. Type of series: cell-based. Also on record: cytotoxic activity, agent alone: dose or concentration left out as unconfirmed. On the procedure:
In this example, the ability of 6-((5-fluoro-2-((3,4,5-trimethoxyphenyl)amino)pyrimidin-4-yl)amino)-2,2-dimethyl-2H-pyrido[3,2-b][1,4]oxazin-3(4H)-one (or a prodrug thereof) to synergistically enhance cytotoxic activity of venetoclax in AML cell lines is evaluated. Cytotoxic effects of venetoclax can be determined using Annexin V/PI staining against a panel of different AML cell lines.

Another series concerns AML cell line xenograft. The series is described as follows: mouse model xenografted with an AML cell line, tumor growth. It counts as in vivo. The note with it: intraperitoneal injections; subcutaneous tumors ≥250 mm^3. An excerpt:
The activity of 6-((5-fluoro-2-((3,4,5-trimethoxyphenyl)amino)pyrimidin-4-yl)amino)-2,2-dimethyl-2H-pyrido[3,2-b][1,4]oxazin-3(4H)-one (or a prodrug thereof), alone, also can be evaluated. To do so, activity of 6-((5-fluoro-2-((3,4,5-trimethoxyphenyl)amino)pyrimidin-4-yl)amino)-2,2-dimethyl-2H-pyrido[3,2-b][1,4]oxazin-3(4H)-one can be tested in the appropriate mouse model xenografted with an AML cell line. Tumors can be injected subcutaneously (e.g., in the right flank) and allowed to grow until they reached an appropriate size (e.g., ≥250 mm^3). Intraperitoneal injections can be used to introduce the treatment. […] In some examples, significant differences in tumor volume between mice receiving 6-((5-fluoro-2-((3,4,5-trimethoxyphenyl)amino)pyrimidin-4-yl)amino)-2,2-dimethyl-2H-pyrido[3,2-b][1,4]oxazin-3(4H)-one alone and mice receiving 6-((5-fluoro-2-((3,4,5-trimethoxyphenyl)amino)pyrimidin-4-yl)amino)-2,2-dimethyl-2H-pyrido[3,2-b][1,4]oxazin-3(4H)-one in combination with venetoclax can be observed.

The test system of series [2] is mice transplanted with HOXA9/MEIS1 cells. The series is described as follows: mice transplanted with HOXA9/MEIS1 cells treated with fostamatinib-impregnated feed. Type of series: in vivo, mouse. To be noted: feed at 3 g/kg, 5 g/kg or 8 g/kg. The method, then: In this example, mice transplanted with HOXA9 MEIS1 or HOXA9 cells are treated with fostamatinib using feed impregnated with fostamatinib at 3 g/kg, 5 g/kg or 8 g/kg (AIN-76A rodent diet).

Consider `COc1cc(Nc2ncc(F)c(Nc3ccc4c(n3)NC(=O)C(C)(C)O4)n2)cc(OC)c1OC` [6-((5-fluoro-2-((3,4,5-trimethoxyphenyl)amino)pyrimidin-4-yl)amino)-2,2-dimethyl-2H-pyrido[3,2-b][1,4]oxazin-3(4H)-one], for which the “sensitivity of AML samples with high HOXA9 and MEIS1 compared with samples with weak MEIS1 expression” value in series [1] is reported as “more sensitive”. The “cell death compared with cells treated with DMSO” value in the series with HOXA9/MEIS1 cells is reported as “significant increase”. Moreover, the “effect on cytotoxic activity of venetoclax” value with AML cell lines (cells treated at different concentrations for e.g. 2 hours) is given as “markedly increase the cytotoxic activity of venetoclax”. Also, the “cytotoxic effects on its own” value in the series on AML cell lines (compound (or prodrug) alone) is reported as “absence of any substantial cytotoxic effects”. Moreover, the “tumor growth, compound alone” value in the series with AML cell line xenograft was “partially inhibit tumor growth”.

As to `COc1cc(Nc2ncc(F)c(Nc3ccc4c(n3)N(COP(=O)(O)O)C(=O)C(C)(C)O4)n2)cc(OC)c1OC` [fostamatinib, 6-((5-fluoro-2-((3,4,5-trimethoxyphenyl)amino)pyrimidin-4-yl)amino)-2,2-dimethyl-3-oxo-2,3-dihydro-4H-pyrido[3,2-b][1,4]oxazin-4-yl)methyl dihydrogen phosphate], in series [2] (longer treatment (e.g., 20 days)), the survival of mice result is given as “significantly prolong the survival”. Further, in series [2] (one week of treatment), the “percentage of leukemic cells” value is recorded as “reduce the percentage of leukemic cells”.

As for `CC1(C)CCC(CN2CCN(c3ccc(C(=O)NS(=O)(=O)c4ccc(NCC5CCOCC5)c([N+](=O)[O-])c4)c(Oc4cnc5[nH]ccc5c4)c3)CC2)=C(c2ccc(Cl)cc2)C1` [venetoclax, reference compound], the “cytotoxic activity, agent alone” value with AML cell lines (venetoclax alone, concentrations ranging) was “only modest activity”.

The record behind these values is patent US20220000880A1, “METHOD AND COMPOSITION EMBODIMENTS FOR TREATING ACUTE MYELOID LEUKEMIA” (Rigel Pharmaceuticals, Inc., priority 2018, published 2022).
